Assay results taken from patent US7662961B2, “N-phenylpyrazole derivatives as pesticides” (Merial Limited, priority 2004, dated 2010).

melting point: 118 °C
SMILES: CN(C(=S)N(C)c1c([S+]([O-])C(F)(F)F)c(C#N)nn1-c1c(Cl)cc(C(F)(F)F)cc1Cl)c1c([S+]([O-])C(F)(F)F)c(C#N)nn1-c1c(Cl)cc(C(F)(F)F)cc1Cl (stereo not shown) [Compound 01-05, N,N′-Bis[3-cyano-1-(2,6-dichloro-4-trifluoromethylphenyl)-4-trifluoromethylsulfinylpyrazol-5-yl]-N,N′-dimethylthiourea]
